Measurements: PubChem BioAssay (NCI)
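Tested at 5 concentrations; 48 h exposure; 96-well plates; endpoints linearly interpolated, else capped at highest concentration. Here, GI50 denotes the concentration required for 50% inhibition of growth. TGI denotes the concentration required for complete inhibition of growth.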

Key:
Assay in all cases: NCI-60 cell line screen, 48 h
[1] = system: 786-0 renal
[2] = system: A498 renal
[3] = system: A549 NSCLC
[4] = system: ACHN renal
[5] = system: BT-549 breast
[6] = system: CAKI-1 renal
[7] = system: CCRF-CEM leukemia
[8] = system: COLO 205 colon
[9] = system: DU-145 prostate
[10] = system: EKVX NSCLC
[11] = system: HCC-2998 colon
[12] = system: HCT-116 colon
[13] = system: HCT-15 colon
[14] = system: HL-60(TB) leukemia
[15] = system: HOP-62 NSCLC
[16] = system: HOP-92 NSCLC
[17] = system: HS 578T breast
[18] = system: HT29 colon
[19] = system: IGROV1 ovarian
[20] = system: K-562 leukemia
[21] = system: KM12 colon
[22] = system: LOX IMVI melanoma
[23] = system: M14 melanoma
[24] = system: MALME-3M melanoma
[25] = system: MCF7 breast
[26] = system: MDA-MB-231 breast
[27] = system: MDA-MB-435
[28] = system: MOLT-4 leukemia
[29] = system: NCI-H226 lung
[30] = system: NCI-H23 lung
[31] = system: NCI-H460 lung
[32] = system: NCI-H522 lung
[33] = system: NCI/ADR-RES ovarian
[34] = system: OVCAR-3 ovarian
[35] = system: OVCAR-4 ovarian
[36] = system: OVCAR-5 ovarian
[37] = system: OVCAR-8 ovarian
[38] = system: PC-3 prostate
[39] = system: RPMI-8226 leukemia
[40] = system: RXF 393 renal
[41] = system: SF-268 CNS
[42] = system: SF-295 CNS
[43] = system: SF-539 CNS
[44] = system: SK-MEL-2 melanoma
[45] = system: SK-MEL-28 melanoma
[46] = system: SK-MEL-5 melanoma
[47] = system: SK-OV-3 ovarian
[48] = system: SN12C renal
[49] = system: SNB-19 CNS
[50] = system: SNB-75 CNS
[51] = system: SR leukemia
[52] = system: SW-620 colon
[53] = system: T-47D breast
[54] = system: TK-10 renal
[55] = system: U251 CNS
[56] = system: UACC-257 melanoma
[57] = system: UACC-62 melanoma
[58] = system: UO-31 renal

Q: How did the GI50 [1] turn out when `O=C(CSc1nc2ccc([N+](=O)[O-])cc2[nH]1)Nc1ccc(F)c(Cl)c1` was run?
A: 2.84 µM

Q: And the TGI [1]?
A: 11.8 µM

Q: And the GI50 [2]?
A: 1.11 µM

Q: And the TGI [2]?
A: 3.6 µM

Q: And the GI50 [3]?
A: 2.48 µM

Q: And the TGI [3]?
A: 12.6 µM

Q: What about the GI50 [4] of the same compound?
A: 2.35 µM

Q: What about the TGI [4] of the same compound?
A: 7.93 µM

Q: What about the GI50 [5] of the same compound?
A: 2.44 µM

Q: What about the TGI [5] of the same compound?
A: 9.34 µM

Q: And the GI50 [6]?
A: 1.95 µM

Q: What about the TGI [6] of the same compound?
A: 7.33 µM

Q: And the GI50 [7]?
A: 2.75 µM

Q: And the TGI [7]?
A: > 45.7 µM

Q: And the GI50 [8]?
A: 1.6 µM

Q: And the TGI [8]?
A: 3.3 µM

Q: What about the GI50 [9] of the same compound?
A: 3.24 µM

Q: And the TGI [9]?
A: 13.4 µM

Q: What about the GI50 [10] of the same compound?
A: 1.85 µM

Q: And the TGI [10]?
A: 8.85 µM

Q: What about the GI50 [11] of the same compound?
A: 2.95 µM

Q: And the TGI [11]?
A: 11.8 µM

Q: What about the GI50 [12] of the same compound?
A: 2.42 µM

Q: What about the TGI [12] of the same compound?
A: 10.6 µM

Q: And the GI50 [13]?
A: 2.84 µM

Q: What about the TGI [13] of the same compound?
A: 13 µM

Q: What about the GI50 [14] of the same compound?
A: 2.21 µM

Q: What about the TGI [14] of the same compound?
A: 6.26 µM

Q: What about the GI50 [15] of the same compound?
A: 2.46 µM

Q: And the TGI [15]?
A: 9.89 µM

Q: What about the GI50 [16] of the same compound?
A: 0.346 µM

Q: And the TGI [16]?
A: 2.72 µM

Q: And the GI50 [17]?
A: 2.45 µM

Q: What about the TGI [17] of the same compound?
A: 9.63 µM

Q: And the GI50 [18]?
A: 3.14 µM

Q: And the TGI [18]?
A: 11.9 µM

Q: What about the GI50 [19] of the same compound?
A: 2.65 µM

Q: What about the TGI [19] of the same compound?
A: 14.6 µM

Q: What about the GI50 [20] of the same compound?
A: 2.44 µM

Q: And the TGI [20]?
A: > 42.3 µM

Q: What about the GI50 [21] of the same compound?
A: 2.83 µM

Q: What about the TGI [21] of the same compound?
A: 12.2 µM

Q: And the GI50 [22]?
A: 2.89 µM

Q: And the TGI [22]?
A: 14 µM

Q: What about the GI50 [23] of the same compound?
A: 2.81 µM

Q: What about the TGI [23] of the same compound?
A: 12.4 µM

Q: And the GI50 [24]?
A: 1.75 µM

Q: And the TGI [24]?
A: 6.96 µM

Q: And the GI50 [25]?
A: 2.03 µM

Q: And the TGI [25]?
A: 9.4 µM

Q: And the GI50 [26]?
A: 1.91 µM

Q: And the TGI [26]?
A: 5.59 µM

Q: And the GI50 [27]?
A: 2.6 µM

Q: What about the TGI [27] of the same compound?
A: 12.6 µM

Q: What about the GI50 [28] of the same compound?
A: 2.7 µM

Q: What about the TGI [28] of the same compound?
A: 19.9 µM

Q: What about the GI50 [29] of the same compound?
A: 2.15 µM

Q: And the TGI [29]?
A: 9.57 µM

Q: What about the GI50 [30] of the same compound?
A: 2.05 µM

Q: And the TGI [30]?
A: 8.79 µM

Q: What about the GI50 [31] of the same compound?
A: 2.87 µM

Q: What about the TGI [31] of the same compound?
A: 11.3 µM

Q: And the GI50 [32]?
A: 2.37 µM

Q: What about the TGI [32] of the same compound?
A: 12.4 µM

Q: What about the GI50 [33] of the same compound?
A: 2.31 µM

Q: And the TGI [33]?
A: 8.23 µM

Q: And the GI50 [34]?
A: 2 µM

Q: What about the TGI [34] of the same compound?
A: 10.1 µM

Q: And the GI50 [35]?
A: 1.99 µM

Q: And the TGI [35]?
A: 17.8 µM

Q: And the GI50 [36]?
A: 2.65 µM

Q: And the TGI [36]?
A: 11.5 µM

Q: What about the GI50 [37] of the same compound?
A: 3.04 µM

Q: What about the TGI [37] of the same compound?
A: > 34.4 µM

Q: What about the GI50 [38] of the same compound?
A: 2.57 µM

Q: And the TGI [38]?
A: 11.6 µM

Q: And the GI50 [39]?
A: 1.39 µM

Q: And the TGI [39]?
A: > 21.5 µM

Q: What about the GI50 [40] of the same compound?
A: 2.34 µM

Q: What about the TGI [40] of the same compound?
A: 7.84 µM

Q: What about the GI50 [41] of the same compound?
A: 2.91 µM

Q: And the TGI [41]?
A: 13.2 µM

Q: What about the GI50 [42] of the same compound?
A: 1.81 µM

Q: And the TGI [42]?
A: 5.5 µM

Q: What about the GI50 [43] of the same compound?
A: 3 µM

Q: And the TGI [43]?
A: 11.4 µM

Q: And the GI50 [44]?
A: 2.22 µM

Q: And the TGI [44]?
A: 6.35 µM

Q: And the GI50 [45]?
A: 2.68 µM

Q: What about the TGI [45] of the same compound?
A: 12.9 µM

Q: And the GI50 [46]?
A: 1.22 µM

Q: What about the TGI [46] of the same compound?
A: 3.03 µM

Q: What about the GI50 [47] of the same compound?
A: 1.42 µM

Q: What about the TGI [47] of the same compound?
A: 4.79 µM

Q: And the GI50 [48]?
A: 2.36 µM

Q: And the TGI [48]?
A: 10.7 µM

Q: What about the GI50 [49] of the same compound?
A: 2.83 µM

Q: What about the TGI [49] of the same compound?
A: 13.1 µM

Q: What about the GI50 [50] of the same compound?
A: 1.84 µM

Q: And the TGI [50]?
A: 7.5 µM

Q: And the GI50 [51]?
A: 3 µM

Q: What about the TGI [51] of the same compound?
A: > 37.3 µM

Q: What about the GI50 [52] of the same compound?
A: 3.26 µM

Q: What about the TGI [52] of the same compound?
A: 15.7 µM

Q: And the GI50 [53]?
A: 1.11 µM

Q: And the TGI [53]?
A: 10.2 µM

Q: And the GI50 [54]?
A: 4.08 µM

Q: And the TGI [54]?
A: 15.9 µM

Q: And the GI50 [55]?
A: 2.5 µM

Q: And the TGI [55]?
A: 12.3 µM

Q: What about the GI50 [56] of the same compound?
A: 1.54 µM

Q: What about the TGI [56] of the same compound?
A: 6.32 µM

Q: What about the GI50 [57] of the same compound?
A: 1.63 µM

Q: And the TGI [57]?
A: 10.5 µM

Q: And the GI50 [58]?
A: 1.69 µM

Q: What about the TGI [58] of the same compound?
A: 7.8 µM
